Assay results from patent publication US20250236607A1, “CYCLIN-DEPENDENT KINASE 9 (CDK9) DEGRADERS AND METHODS OF USING THEREOF” (OHIO STATE INNOVATION FOUNDATION, priority 2022, published 2025).
Values after ≈ are worked out from the molar mass of the structure shown. Where two headings read alike, the source gives them in different places.

Key:
[1] = tested on: MV411 cells; experiment: MTS cytotoxicity assay against MV411 cells; format: cell-based
Experimental: (§1) The obtained compounds were tested in biological experiments to measure their potency in inhibiting the growth of AML cells and in their degradation of CDK9. These measurements are reported as half-maximum growth inhibitory and half-maximum degradation concentrations, IC50s and DC50s, respectively. Maximum percent degradation (Dmax) values were also obtained during the CDK9 degradation assessments. The common MTS assay was used to acquire the IC50 values, while the DC50 values were obtained using an automated western blot experiment. These values are presented in Table 2, along with pIC50 (log(nM IC50)) to more accurately reflect the differences/lack thereof in in vitro cytotoxicity. The notation “N:N*” represents the number of linker atoms on each side of the rigid triazole ring for a given degrader. Predicted log D values, calculated using the ChemAxon […], are also provided for each degrader. To characterize the physicochemical properties of the new degrader series, two additional assays were performed: a kinetic aqueous solubility assay and the chromatographic log D experiment described earlier. Aqueous solubility is shown in μM while experimentally determined log D is shown as log k′80. Details regarding the execution of each experiment are provided below.

[2] = biological target: T1, CDK9 (Homo sapiens, UniProt P50750+Q96SW2); experiment: CDK9 degradation, automated western blot, triazole-containing AT7519 degraders (MV411); format: cell-based; conditions: for DC50: CDK9 degradation, MV411 cells; for Dmax: MV4-11
T1 construct: endogenous in cells
Experimental: as §1

[3] = Chromatographic log D determination (log k′80); format: physicochemical; conditions: for logk′80: chromatographic log D, PLRP-S column, pH 7.72
In short: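 Samples were diluted from DMSO stock to 122 μM in acetonitrile and run on a PLRP-S column in 20:80 aqueous ammonium acetate/acetonitrile, pH 7.72, at 1 mL/min with UV detection at 337 nm. log k′80 used a fixed 0.3 min dead time derived from a five-compound standard set. Runs were done in triplicate.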

[4] = tested on: MV411 cells; experiment: Cellular potency in human serum versus fetal bovine serum, MV411; format: cell-based
From the text: FIGS. 3A-3C. In vitro cellular potency (against MV411 cells) in human serum (HS) versus fetal bovine serum (FBS) for compounds 4.7b (FIG. 3A) 4.9c (FIG. 3B), and 4,8a (FIG. 3C).
This contrasts with 4.8a, which loses its potency by almost 20-fold in human serum (FIG. 3C).

[5] = tested on: AML cells; experiment: Drug washout experiment (cytotoxicity); format: cell-based; conditions: 6 h drugging, 48 h total
Experimental: To better evaluate the catalytic mechanism of action of this degrader series, a drug washout (WO) experiment was performed. This experiment involved the drugging of cells for six hours after which the cell media was replaced with a drug-free batch.

[6] = Kinetic solubility assay; conditions: kinetic solubility, PBS pH 7.4; for solubility at 1.5 h: phosphate buffered saline, pH 7.4, aqueous buffer, kinetic from dmso stock, Solubility (μM)
Experimental: (§2) Kinetic Solubility Assay. Kinetic solubility (KS) was measured according to Millipore protocol PC2445 EN00. Test compounds were weighed and diluted with DMSO to 10 mM. From the stock solutions as well as blank (100% DMSO) was taken 17.5 μL and diluted to 500 μM with 332.5 μL of 100 mM phosphate Buffered Saline (PPBS) at pH 7.4 in a 96-well quartz plate. From the 500 μM solutions was taken 150 μL and dispensed into a 96-well Millipore filter plate (Product number: MSSLBPC10). In the quartz plate, serial dilutions were performed down to 0.5 μM using the 100 mM PBS solution, leaving 100 μL of each test sample at 11 different concentrations, representing standards. These steps were performed in triplicate, at minimum, for each test compound. Both plates were shaken on an orbital shaker at 150 rpm for 1.5 hours. The contents of the filter plate were filtered and 100 μL of the filtrate from each well was dispensed into the quartz plate containing standards. The quartz plate was then analyzed using a UV plate reader where absorbance was measured at the relevant wavelength for each compound. After blank subtraction, for each test sample, solubility was determined based on the optical density of filtered samples and the equations derived from the corresponding linear standard curve.

[7] = pH 7.4
Experimental: as §2

[8] = tested on: CDK9; experiment: In vivo CDK9 degradation in mice; conditions: preliminary study, AML-xenografted mice
Experimental: Both degraders were able to degrade CDK9 at low nanomolar concentrations. […] Moreover, dissolution of the test compounds in the 10 mM phosphate buffered saline (PBS) media was very difficult. Solvents, such as dimethylsulfoxide (DMSO), polyethylene glycol and Tween 80©, had to be added in generous quantities to the PBS vehicle to facilitate solubility of the test compounds and allow for the preliminary in vivo assessment that led to the conclusion of inactivity in mice. Significant toxicity, in the form of death and inflammation at the injection site, was also observed due to the inclusion of these additives in the PBS vehicle.

[9] = Homo sapiens, MV4-11, defined as log(nM IC50), MV411, read-out: pIC50 (converted)
[10] = Homo sapiens, MV4-11, growth inhibition, MV411 cells, MTS, read-out: IC50
[11] = maximum percent CDK9 degradation

T1 sequence (P50750 whole entry): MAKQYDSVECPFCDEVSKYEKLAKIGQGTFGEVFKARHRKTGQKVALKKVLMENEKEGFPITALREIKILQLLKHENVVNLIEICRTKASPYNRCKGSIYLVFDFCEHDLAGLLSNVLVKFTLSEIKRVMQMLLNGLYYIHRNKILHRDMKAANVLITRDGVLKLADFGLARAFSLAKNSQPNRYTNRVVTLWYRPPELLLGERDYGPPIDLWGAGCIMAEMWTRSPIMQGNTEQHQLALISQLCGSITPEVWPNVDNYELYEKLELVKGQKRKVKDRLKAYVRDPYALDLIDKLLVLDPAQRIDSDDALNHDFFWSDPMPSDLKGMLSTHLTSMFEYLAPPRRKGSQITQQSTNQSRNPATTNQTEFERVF
T1 sequence (O60563 whole entry partner): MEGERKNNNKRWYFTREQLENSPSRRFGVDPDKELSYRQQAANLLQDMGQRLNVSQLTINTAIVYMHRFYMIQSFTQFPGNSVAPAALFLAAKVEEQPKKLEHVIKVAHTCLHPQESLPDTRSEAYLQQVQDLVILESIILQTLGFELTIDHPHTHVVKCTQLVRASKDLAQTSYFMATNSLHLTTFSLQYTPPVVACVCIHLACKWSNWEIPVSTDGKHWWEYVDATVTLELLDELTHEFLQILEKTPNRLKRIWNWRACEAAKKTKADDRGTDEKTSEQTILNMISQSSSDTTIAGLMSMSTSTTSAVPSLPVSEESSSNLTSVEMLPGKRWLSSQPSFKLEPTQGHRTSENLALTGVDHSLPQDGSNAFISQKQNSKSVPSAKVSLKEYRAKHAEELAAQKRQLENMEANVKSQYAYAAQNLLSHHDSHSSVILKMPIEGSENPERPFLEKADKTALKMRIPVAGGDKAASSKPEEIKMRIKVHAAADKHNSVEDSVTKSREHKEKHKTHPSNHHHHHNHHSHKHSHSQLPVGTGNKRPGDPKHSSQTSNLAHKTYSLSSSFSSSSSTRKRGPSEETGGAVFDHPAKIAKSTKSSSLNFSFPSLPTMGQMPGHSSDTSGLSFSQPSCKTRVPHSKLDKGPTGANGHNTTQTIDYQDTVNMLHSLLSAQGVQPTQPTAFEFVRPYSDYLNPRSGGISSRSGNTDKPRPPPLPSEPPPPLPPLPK
T1 sequence (Q96SW2 whole entry): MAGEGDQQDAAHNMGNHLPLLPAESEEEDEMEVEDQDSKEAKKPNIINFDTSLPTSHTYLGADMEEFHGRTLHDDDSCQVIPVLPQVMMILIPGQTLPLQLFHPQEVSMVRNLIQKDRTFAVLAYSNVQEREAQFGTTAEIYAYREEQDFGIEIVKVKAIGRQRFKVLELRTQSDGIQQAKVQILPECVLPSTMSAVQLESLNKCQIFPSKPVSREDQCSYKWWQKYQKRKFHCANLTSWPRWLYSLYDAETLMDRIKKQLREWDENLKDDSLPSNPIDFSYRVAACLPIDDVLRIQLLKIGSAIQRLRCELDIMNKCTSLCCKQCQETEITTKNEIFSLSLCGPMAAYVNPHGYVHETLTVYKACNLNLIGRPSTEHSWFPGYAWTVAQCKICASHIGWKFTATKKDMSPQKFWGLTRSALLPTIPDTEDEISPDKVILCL
T1 sequence (Q16531 whole entry partner): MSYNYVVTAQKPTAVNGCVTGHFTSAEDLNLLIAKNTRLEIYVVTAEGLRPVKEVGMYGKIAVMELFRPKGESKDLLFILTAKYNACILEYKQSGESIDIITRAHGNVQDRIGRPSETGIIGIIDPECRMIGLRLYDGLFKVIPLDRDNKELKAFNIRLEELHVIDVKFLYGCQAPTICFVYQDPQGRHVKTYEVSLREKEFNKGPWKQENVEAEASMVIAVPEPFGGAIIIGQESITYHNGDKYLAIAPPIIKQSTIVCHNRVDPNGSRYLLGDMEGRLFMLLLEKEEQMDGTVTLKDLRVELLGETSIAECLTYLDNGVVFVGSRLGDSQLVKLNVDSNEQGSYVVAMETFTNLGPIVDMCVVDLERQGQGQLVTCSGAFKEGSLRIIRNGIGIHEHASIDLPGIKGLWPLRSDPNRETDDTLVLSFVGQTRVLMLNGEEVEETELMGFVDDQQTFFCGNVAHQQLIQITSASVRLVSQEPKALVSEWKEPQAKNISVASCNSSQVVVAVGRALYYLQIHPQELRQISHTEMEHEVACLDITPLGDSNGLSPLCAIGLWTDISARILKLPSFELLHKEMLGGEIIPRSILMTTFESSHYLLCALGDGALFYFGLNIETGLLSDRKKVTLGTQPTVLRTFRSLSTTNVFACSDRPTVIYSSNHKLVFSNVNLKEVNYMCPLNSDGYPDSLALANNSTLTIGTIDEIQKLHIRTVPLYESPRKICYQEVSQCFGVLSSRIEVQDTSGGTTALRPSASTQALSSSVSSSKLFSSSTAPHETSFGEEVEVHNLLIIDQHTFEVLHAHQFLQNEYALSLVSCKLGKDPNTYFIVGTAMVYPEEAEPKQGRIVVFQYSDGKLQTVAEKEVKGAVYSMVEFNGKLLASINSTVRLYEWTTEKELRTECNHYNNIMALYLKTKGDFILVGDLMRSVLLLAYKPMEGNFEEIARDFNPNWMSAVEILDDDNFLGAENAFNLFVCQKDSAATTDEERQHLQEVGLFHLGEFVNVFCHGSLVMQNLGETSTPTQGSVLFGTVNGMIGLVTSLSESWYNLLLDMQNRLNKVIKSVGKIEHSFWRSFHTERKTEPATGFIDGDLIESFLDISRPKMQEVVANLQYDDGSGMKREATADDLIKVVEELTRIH

DC50 [2] [nM] | Dmax [2, 11] [%] | minimum difference in log k′80 to constitutional isomers [3] | logk′80 [3] | solubility at 1.5 h [6] [µM] | Dmax (%) [2, 11] [%] | Solubility [7] [µM] | Solubility [6] [µM] | SMILES | IC50 [1, 9] [nM] | IC50 [1, 10] [nM] | improvement in cytotoxicity over constitutional isomers ([1]; within isomer set) [fold] | loss of potency in human serum versus FBS [4] [fold] | retention of potency after drug washout [5] | improvement in cytotoxicity over 4.3 ([1]; 4.10 versus 4.3) | pIC50 ([1]; defined as log(nM IC50), MV411) | IC50 ([1]; growth inhibition, MV411 cells, MTS, read-out: IC50) [nM] | improvement in cytotoxicity in human serum versus FBS [4] [fold] | in vivo CDK9 degradation [8]
44.8 | 88.6 | 0.013 | 0.197 | 3.42 (≈ 3.09 µg/mL) |  |  |  | O=C1CCC(N2C(=O)c3cccc(OCCCn4cc(CCCCCCCCCCN5CCC(NC(=O)c6n[nH]cc6NC(=O)c6c(Cl)cccc6Cl)CC5)nn4)c3C2=O)C(=O)N1 (stereo not drawn) [Compound 4.9c, 4-(2,6-dichlorobenzamido)-N-(1-(10-(1-(3-((2-(2,6-dioxopiperidin-3-yl)-1,3-dioxoisoindolin-4-yl)oxy)propyl)-1H-1,2,3-triazol-4-yl)decyl)piperidin-4-yl)-1H-pyrazole-3-carboxamide] | 7.94 | 8.8 | ~10 | 3 | retain their potency |  |  |  |  | 
99.9 | 70.1 |  | 0.140 | 5.46 (≈ 4.78 µg/mL) |  |  |  | O=C1CCC(N2C(=O)c3cccc(OCCCCCCn4cc(CCCCCN5CCC(NC(=O)c6n[nH]cc6NC(=O)c6c(Cl)cccc6Cl)CC5)nn4)c3C2=O)C(=O)N1 (stereo not drawn) [Compound 4.10, 4-(2,6-dichlorobenzamido)-N-(1-(5-(1-(6-((2-(2,6-dioxopiperidin-3-yl)-1,3-dioxoisoindolin-4-yl)oxy)hexyl)-1H-1,2,3-triazol-4-yl)pentyl)piperidin-4-yl)-1H-pyrazole-3-carboxamide] | 50.1 | 46.6 |  |  | retain their potency | over 5 fold |  |  |  | 
60.1 | 88.3 | 0.030 | 0.146 | 5.65 (≈ 4.79 µg/mL) |  |  |  | O=C1CCC(N2C(=O)c3cccc(OCCCCCCCn4cc(CCN5CCC(NC(=O)c6n[nH]cc6NC(=O)c6c(Cl)cccc6Cl)CC5)nn4)c3C2=O)C(=O)N1 (stereo not drawn) [Compound 4.8a, 4-(2,6-dichlorobenzamido)-N-(1-(2-(1-(7-((2-(2,6-dioxopiperidin-3-yl)-1,3-dioxoisoindolin-4-yl)oxy)heptyl)-1H-1,2,3-triazol-4-yl)ethyl)piperidin-4-yl)-1H-pyrazole-3-carboxamide] | 50.1 | 46.9 |  | ~20 |  |  |  |  |  | 
61.4 |  |  | 0.176 |  | 78.0 | 4.70 (≈ 4.25 µg/mL) |  | O=C1CCC(N2C(=O)c3cccc(OCCCCCCn4cc(CCCCCCCN5CCC(NC(=O)c6n[nH]cc6NC(=O)c6c(Cl)cccc6Cl)CC5)nn4)c3C2=O)C(=O)N1 (stereo not drawn) [Compound 4.9b] |  |  |  |  | retain their potency |  | 1.8 | 63.3 |  | 
69.2 | 79.1 |  | 0.084 | 40 (≈ 32.8 µg/mL) |  |  | 40.9 (≈ 33.5 µg/mL) | O=C1CCC(N2C(=O)c3cccc(OCCCn4cc(CCCCN5CCC(NC(=O)c6n[nH]cc6NC(=O)c6c(Cl)cccc6Cl)CC5)nn4)c3C2=O)C(=O)N1 (stereo not drawn) [Compound 4.7b, 4-(2,6-dichlorobenzamido)-N-(1-(4-(1-(3-((2-(2,6-dioxopiperidin-3-yl)-1,3-dioxoisoindolin-4-yl)oxy)propyl)-1H-1,2,3-triazol-4-yl)butyl)piperidin-4-yl)-1H-pyrazole-3-carboxamide] | 200 | 190 |  |  |  |  |  |  | ~3 | not observed
